Measured values: ChEMBL document CHEMBL5154770, “Discovery of novel ataxia telangiectasia mutated (ATM) kinase modulators: Computational simulation, biological evaluation and cancer combinational chemotherapy study” (Eur J Med Chem, 2022)
Active and inactive are the calls of the source. No cut-off for these calls is given here.

Experiments:
SW480 [1] = test: Additive cytotoxicity against human SW480 cells measured after 9 days in presence of 5 uM KU55933 by SRB assay; type: functional, cell-based; settings: SW480, 216 h
MCF7 [2] = test: Antagonistic cytotoxicity against human MCF7 cells assessed as combination index measured after 2 days in presence of 50 nM AZD0156 by SRB assay; type: functional; settings: time 2 day
SW480 [3] = test: Additive cytotoxicity against human SW480 cells assessed as combination index measured after 9 days in presence of 5 uM KU55933 by SRB assay; type: functional; settings: time 9 day
SW480 [4] = test: Antagonistic cytotoxicity against human SW480 cells assessed as combination index measured after 3 days in presence of 50 nM AZD0156 by SRB assay; type: functional; settings: time 3 day
MCF7 [5] = test: Synergistic cytotoxicity against human MCF7 cells in presence of 10 uM 3-Chloro-4-methoxy-N-((4-(oxazolo[4,5-b]pyridin-2-yl)phenyl)carbamothioyl)benzamide measured after 2 days by SRB assay; type: functional, cell-based; settings: MCF7, 48 h
SW480 [6] = test: Antagonistic cytotoxicity against human SW480 cells assessed as combination index measured after 3 days in presence of 5 uM KU55933 by SRB assay; type: functional; settings: time 3 day
NCI-H1299 [7] = test: Synergistic cytotoxicity against human NCI-H1299 cells assessed as combination index measured in presence of 5 uM KU60019 after 6 days by SRB assay; type: functional; settings: time 6 day
NCI-H1299 [8] = test: Additive cytotoxicity against human NCI-H1299 cells measured in presence of 5 uM KU55933 after 6 days by SRB assay; type: functional, cell-based; settings: NCI-H1299, 144 h
NCI-H1299 [9] = test: Cytotoxicity against human NCI-H1299 cells measured in presence of 5 uM 2(((2-(2,4-dichlorobenzyl)oxy)naphthalen-1-yl)methyl)amino)ethan-1-ol after 6 days by SRB assay; type: functional, cell-based; settings: NCI-H1299, 144 h
MCF7 [10] = test: Antagonistic cytotoxicity against human MCF7 cells assessed as combination index measured after 2 days in presence of 5 uM KU60019 by SRB assay; type: functional; settings: time 2 day
MCF7 [11] = test: Synergistic cytotoxicity against human MCF7 cells assessed as combination index in presence of 10 uM 3-Chloro-4-methoxy-N-((4-(oxazolo[4,5-b]pyridin-2-yl)phenyl)carbamothioyl)benzamide measured after 2 days by SRB assay; type: functional; settings: time 2 day
SW480 [12] = test: Synergistic cytotoxicity against human SW480 cells measured after 9 days in presence of 50 nM AZD0156 by SRB assay; type: functional, cell-based; settings: SW480, 216 h
NCI-H1299 [13] = test: Synergistic cytotoxicity against human NCI-H1299 cells measured in presence of 5 uM KU60019 after 6 days by SRB assay; type: functional, cell-based; settings: NCI-H1299, 144 h
MCF7 [14] = test: Cytotoxicity against human MCF7 cells measured after 6 days in presence of 5 uM 2(((24(2,4-dichlorobenzyl)oxy)naphthalen-1-yl)methyl)amino)ethan-1-ol by SRB assay; type: functional, cell-based; settings: MCF7, 144 h
NCI-H1299 [15] = test: Synergistic cytotoxicity against human NCI-H1299 cells measured in presence of 50 nM AZD0156 after 6 days by SRB assay; type: functional, cell-based; settings: NCI-H1299, 144 h
MCF7 [16] = test: Synergistic cytotoxicity against human MCF7 cells measured after 6 days in presence of 5 uM KU60019 by SRB assay; type: functional, cell-based; settings: MCF7, 144 h
SW480 [17] = test: Antagonistic cytotoxicity against human SW480 cells measured after 3 days in presence of 5 uM KU55933 by SRB assay; type: functional, cell-based; settings: SW480, 72 h
MCF7 [18] = test: Synergistic cytotoxicity against human MCF7 cells measured after 6 days in presence of 50 nM AZD0156 by SRB assay; type: functional, cell-based; settings: MCF7, 144 h
SW480 [19] = test: Antagonistic cytotoxicity against human SW480 cells measured after 3 days in presence of 5 uM 2(((24(2,4-dichlorobenzyl)oxy)naphthalen-1-yl)methyl)amino)ethan-1-ol by SRB assay; type: functional, cell-based; settings: SW480, 72 h
SW480 [20] = test: Cytotoxicity against human SW480 cells measured after 9 days in presence of 5 uM 2(((24(2,4-dichlorobenzyl)oxy)naphthalen-1-yl)methyl)amino)ethan-1-ol by SRB assay; type: functional, cell-based; settings: SW480, 216 h
NCI-H1299 [21] = test: Cytotoxicity against human NCI-H1299 cells measured in presence of 5 uM 2(((2-(2,4-dichlorobenzyl)oxy)naphthalen-1-yl)methyl)amino)ethan-1-ol after 2 days by SRB assay; type: functional, cell-based; settings: NCI-H1299, 48 h
MCF7 [22] = test: Antagonistic cytotoxicity against human MCF7 cells measured after 2 days in presence of 50 nM AZD0156 by SRB assay; type: functional, cell-based; settings: MCF7, 48 h
NCI-H1299 [23] = test: Synergistic cytotoxicity against human NCI-H1299 cells assessed as combination index measured in presence of 50 nM AZD0156 after 6 days by SRB assay; type: functional; settings: time 6 day
MCF7 [24] = test: Antagonistic cytotoxicity against human MCF7 cells assessed as combination index in presence of 10 uM 3-Chloro-4-methoxy-N-((4-(oxazolo[4,5-b]pyridin-2-yl)phenyl)carbamothioyl)benzamide measured after 6 days by SRB assay; type: functional; settings: time 6 day
SW480 [25] = test: Synergistic cytotoxicity against human SW480 cells measured after 9 days in presence of 5 uM KU60019 by SRB assay; type: functional, cell-based; settings: SW480, 216 h
MCF7 [26] = test: Antagonistic cytotoxicity against human MCF7 cells assessed as combination index measured after 2 days in presence of 5 uM 2(((24(2,4-dichlorobenzyl)oxy)naphthalen-1-yl)methyl)amino)ethan-1-ol by SRB assay; type: functional; settings: time 2 day
MCF7 [27] = test: Antagonistic cytotoxicity against human MCF7 cells measured after 2 days in presence of 5 uM 2(((24(2,4-dichlorobenzyl)oxy)naphthalen-1-yl)methyl)amino)ethan-1-ol by SRB assay; type: functional, cell-based; settings: MCF7, 48 h
SW480 [28] = test: Synergistic cytotoxicity against human SW480 cells assessed as combination index measured after 9 days in presence of 5 uM KU60019 by SRB assay; type: functional; settings: time 9 day
NCI-H1299 [29] = test: Additive cytotoxicity against human NCI-H1299 cells assessed as combination index measured in presence of 5 uM KU55933 after 2 days by SRB assay; type: functional; settings: time 2 day
MCF7 [30] = test: Antagonistic cytotoxicity against human MCF7 cells measured after 2 days in presence of 5 uM KU60019 by SRB assay; type: functional, cell-based; settings: MCF7, 48 h
NCI-H1299 [31] = test: Additive cytotoxicity against human NCI-H1299 cells assessed as combination index measured in presence of 5 uM KU55933 after 6 days by SRB assay; type: functional; settings: time 6 day
MCF7 [32] = test: Antagonistic cytotoxicity against human MCF7 cells in presence of 10 uM 3-Chloro-4-methoxy-N-((4-(oxazolo[4,5-b]pyridin-2-yl)phenyl)carbamothioyl)benzamide measured after 6 days by SRB assay; type: functional, cell-based; settings: MCF7, 144 h
MCF7 [33] = test: Synergistic cytotoxicity against human MCF7 cells assessed as combination index measured after 6 days in presence of 50 nM AZD0156 by SRB assay; type: functional; settings: time 6 day
SW480 [34] = test: Antagonistic cytotoxicity against human SW480 cells measured after 3 days in presence of 5 uM KU60019 by SRB assay; type: functional, cell-based; settings: SW480, 72 h
MCF7 [35] = test: Antagonistic cytotoxicity against human MCF7 cells assessed as combination index measured after 2 days in presence of 5 uM KU55933 by SRB assay; type: functional; settings: time 2 day
NCI-H1299 [36] = test: Additive cytotoxicity against human NCI-H1299 cells measured in presence of 5 uM KU55933 after 2 days by SRB assay; type: functional, cell-based; settings: NCI-H1299, 48 h
SW480 [37] = test: Antagonistic cytotoxicity against human SW480 cells measured after 9 days in presence of 3-Chloro-4-methoxy-N-((4-(oxazolo[4,5-b]pyridin-2-yl)phenyl)carbamothioyl)benzamide by SRB assay; type: functional, cell-based; settings: time 9.0 day
MCF7 [38] = test: Antagonistic cytotoxicity against human MCF7 cells measured after 2 days in presence of 5 uM KU55933 by SRB assay; type: functional, cell-based; settings: MCF7, 48 h

| SMILES | IC50 (SW480 [1]) | CI (MCF7 [2]) | CI (SW480 [3]) | CI (SW480 [4]) | IC50 (MCF7 [5]) | CI (SW480 [6]) | CI (NCI-H1299 [7]) | IC50 (NCI-H1299 [8]) | IC50 (NCI-H1299 [9]) | CI (MCF7 [10]) | CI (MCF7 [11]) | IC50 (SW480 [12]) | IC50 (NCI-H1299 [13]) | IC50 (MCF7 [14]) | IC50 (NCI-H1299 [15]) | IC50 (MCF7 [16]) | IC50 (SW480 [17]) | IC50 (MCF7 [18]) | IC50 (SW480 [19]) | IC50 (SW480 [20]) | also measured |
| --- | --- | --- | --- | --- | --- | --- | --- | --- | --- | --- | --- | --- | --- | --- | --- | --- | --- | --- | --- | --- | --- |
| CCc1c2c(nc3ccc(OC(=O)N4CCC(N5CCCCC5)CC4)cc13)-c1cc3c(c(=O)n1C2)COC(=O)[C@]3(O)CC [IRINOTECAN] | 600 nM | 1.3 | 1.02 | 2.4 | 26300 nM | 1.6 | 0.66 | 1670 nM | 1830 nM | 1.6 | 0.78 | < 120 nM | 270 nM | 1680 nM | 220 nM | 1980 nM | 7200 nM | 160 nM | 12400 nM | 70 nM | IC50 (NCI-H1299 [21]): 11100 nM; IC50 (MCF7 [22]): 39200 nM; CI (NCI-H1299 [23]): 0.25; CI (MCF7 [24]): 1.16; IC50 (SW480 [25]): < 120 nM; CI (MCF7 [26]): 2.1; IC50 (MCF7 [27]): 42400 nM; CI (SW480 [28]): 0.25; CI (NCI-H1299 [29]): 1.1; IC50 (MCF7 [30]): 38100 nM; CI (NCI-H1299 [31]): 1.1; IC50 (MCF7 [32]): 1880 nM; CI (MCF7 [33]): 0.97; IC50 (SW480 [34]): 15400 nM; CI (MCF7 [35]): 1.4; IC50 (NCI-H1299 [36]): 13100 nM; Activity (SW480 [37]): Active; IC50 (MCF7 [38]): 38100 nM |
| COc1cc([C@@H]2c3cc4c(cc3[C@@H](O[C@@H]3O[C@@H]5CO[C@@H](C)O[C@H]5[C@H](O)[C@H]3O)[C@H]3COC(=O)[C@H]23)OCO4)cc(OC)c1O [ETOPOSIDE] | 80 nM | 2.8 | 0.95 | 1.3 | 23600 nM | 1.4 | 0.77 | 460 nM | 710 nM | 4.2 | 0.84 | < 10 nM | 230 nM | 660 nM | 240 nM | 60 nM | 3500 nM | 110 nM | 3600 nM | 70 nM | IC50 (NCI-H1299 [21]): 11100 nM; IC50 (MCF7 [22]): 62700 nM; CI (NCI-H1299 [23]): 0.39; CI (MCF7 [24]): 1.16; IC50 (SW480 [25]): < 10 nM; CI (MCF7 [26]): 2.8; IC50 (MCF7 [27]): 46200 nM; CI (SW480 [28]): 0.22; CI (NCI-H1299 [29]): 0.98; IC50 (MCF7 [30]): 87400 nM; CI (NCI-H1299 [31]): 0.91; IC50 (MCF7 [32]): 650 nM; CI (MCF7 [33]): 0.19; IC50 (SW480 [34]): 3800 nM; CI (MCF7 [35]): 2.7; IC50 (NCI-H1299 [36]): 9370 nM; Activity (SW480 [37]): Active; IC50 (MCF7 [38]): 58800 nM |
